System: triglycerides in blood plasma
Assay: In-vivo testing for regulation of triglycerides in blood plasma
Design: species or system male mice B6 Lep ob/ob
Settings: obese mice fed with high fat diet; 30 mg/kg/day, p.o., 14 days treatment
Source text: This effect is probed in obese mice fed with high fat diet. In the following paragraphs the method of this study is described.
The study is done using six weeks old male mice B6 Lep ob/ob, obtained from Charles River (France). Mice are divided in 3 groups: I (control), II (vehicle), III (example 0).
The animals of the group I receive the standard diet (D-12450B, Research Diets, NJ, USA).
The animals of the groups II and III are fed with a High Fat Diet (D-12492, Research Diets, NJ, USA), in both cases for 7 weeks (References 1 and 2).
The animals of the groups III are fed with a High Fat Diet (D-12492, Research Diets, NJ, USA), in both cases for 7 weeks (References 1 and 2).
At the end of the feeding period of 7 weeks, the treatment period (14 days) is started: Group II mice receive the vehicle (10 ml/kg/day, po, of the aqueous solution of acacia gum, 5% W/V). Group III is administered with 30 mg/kg/day, p.o., of the inventive compound (R)-5-(4-chlorophenyl)-1-(2,4-dichlorophenyl)-4,5-dihydro-pyrazole-3-carboxylic acid according to Example 0. […] The three groups of mice have the same diet than in the previous period.
At the end of the 14 days period of treatment, the blood levels of triglicerides of the animals are determined.
The analysis of the whole blood samples is done using test strips "Lipid panel" and the photometric Analyzer Cardio-Check Test System, from PA Instruments Polymer […]

O=C(O)C1=NN(c2ccc(Cl)cc2Cl)[C@@H](c2ccc(Cl)cc2)C1 [Example 0, (R)-5-(4-chlorophenyl)-1-(2,4-dichlorophenyl)-4,5-dihydro-pyrazole-3-carboxylic acid]
blood levels of triglicerides: inhibitor of high blood levels of triglicerides
